# Experimental data published in patent US20100267637A1, “TREATMENT OF MELANOMA WITH ALPHA THYMOSIN PEPTIDES IN COMBINATION WITH A KINASE INHIBITOR” (SciClone Pharmaceuticals, Inc., priority 2007, published 2010).
# Tested on: murine B16 melanoma cells
# Test: Anti-tumor effect: tumor size / tumor volume in mice bearing subcutaneous B16 melanoma
# Format: in vivo, C57BL/6 mice
# Design: key to Tumor measurement L (length) / Tumor measurement W (width): The sign “—” indicates that tumor does not reach a measurable size
# Conditions: for Tumor Volume (cm^3) (Mean ± SD): group mean; for PI (TV), percent inhibition of tumor volume: vs vehicle; for Tumor volumes on Day 15: Length × Width × Width/2
# Description: The toxic effects of the dosing regimens were also monitored. […] Meanwhile 9H10 was given in two groups via i.p. on Day 3, 6 and 9. […] Tumor volume and body weight were measured every three days, and tumor weights were measured on Day 16 at the end of the study.
# As per aseptic tissue culture procedures, one vial of B16 melanoma cells was removed from the liquid nitrogen stock, and placed into a 37° C. water bath. Gentle swirling was conducted until the content of the vial was thawed. Using tissue culture/sterile procedures, the cells were immediately centrifuged with a TD5A-WS centrifuge at 1000 rpm, 20-25° C., 5 min. After centrifugation, the cells were suspended in 0.1 to 0.5 mL normal saline (NS) and subcutaneously injected into 10 mice (0.1 mL/mouse, about 1×10^6 cells). After 7-10 days, when the tumor diameter was approximately 1 cm, the animals were euthanized with CO2 overdose and the tumors excised. The procedure was repeated with 20 mice to generate a sufficient number of B16 melanoma cells with adequate transplantability.
# On the day of tumor implantation, approximately 1×10^6 cells in 0.1 mL were subcutaneously injected on the right axillary area of each mouse. The day of tumor implantation was defined as Day 0.
# On Day 3, the animals were randomly assigned into nine different weight-matched and tumor-size-matched groups. Dosing was started on Day 3 using the regimen according to Table 2.
# From Day 1 to Day 15, mortality and moribundity were checked twice daily, the body weights were recorded once every 3 days, and tumors were measured using a caliper once every 3 days. At the end of the study (Day 16), the animals were euthanized by CO2 asphyxiation, and the tumors were excised and weighed.
# Based on the tumor size, the tumor volume (TV) was calculated with the formula: [TV=(Length×Width×Width)/2]. And the percent inhibition (PI) of TV (PITV) was calculated according to the equation below:
# PITV(%)=(TV vehicle−TVdrug treated)/TV vehicle×100
# Inter-group comparison was performed in terms of tumor volume, tumor weight and body weight, using a student's t test. P values of less than 0.05 were considered to be statistically significant.
compound,measurement,setting,value
CNC(=O)c1cc(Oc2ccc(NC(=O)Nc3ccc(Cl)c(C(F)(F)F)c3)cc2)ccn1 [Sorafenib],Tumor measurement L (length),"Day 3, animal F1",—
same,Tumor measurement W (width),"Day 3, animal F1",—
same,Tumor volume,"Day 3, animal F1",0.0000 cm^3
same,Tumor measurement L (length),"Day 3, animal F2",0.20 cm
same,Tumor measurement W (width),"Day 3, animal F2",0.20 cm
same,Tumor volume,"Day 3, animal F2",0.0040 cm^3
same,Tumor measurement L (length),"Day 3, animal F3",0.10 cm
same,Tumor measurement W (width),"Day 3, animal F3",0.10 cm
same,Tumor volume,"Day 3, animal F3",0.0005 cm^3
same,Tumor measurement L (length),"Day 3, animal F4",—
same,Tumor measurement W (width),"Day 3, animal F4",—
same,Tumor volume,"Day 3, animal F4",0.0000 cm^3
same,Tumor measurement L (length),"Day 3, animal F5",—
same,Tumor measurement W (width),"Day 3, animal F5",—
same,Tumor volume,"Day 3, animal F5",0.0000 cm^3
same,Tumor measurement L (length),"Day 3, animal M1",0.20 cm
same,Tumor measurement W (width),"Day 3, animal M1",0.20 cm
same,Tumor volume,"Day 3, animal M1",0.0040 cm^3
same,Tumor measurement L (length),"Day 3, animal M2",—
same,Tumor measurement W (width),"Day 3, animal M2",—
same,Tumor volume,"Day 3, animal M2",0.0000 cm^3
same,Tumor measurement L (length),"Day 3, animal M3",—
same,Tumor measurement W (width),"Day 3, animal M3",—
same,Tumor volume,"Day 3, animal M3",0.0000 cm^3
same,Tumor measurement L (length),"Day 3, animal M4",—
same,Tumor measurement W (width),"Day 3, animal M4",—
same,Tumor volume,"Day 3, animal M4",0.0000 cm^3
same,Tumor measurement L (length),"Day 3, animal M5",—
same,Tumor measurement W (width),"Day 3, animal M5",—
same,Tumor volume,"Day 3, animal M5",0.0000 cm^3
same,Tumor Volume (cm^3) (Mean ± SD),Day 3,0.001 ± 0.0017 cm^3
same,"PI (TV), percent inhibition of tumor volume",Day 3,−750.00%
same,Tumor measurement L (length),"Day 6, animal F1",—
same,Tumor measurement W (width),"Day 6, animal F1",—
same,Tumor volume,"Day 6, animal F1",0.0000 cm^3
same,Tumor measurement L (length),"Day 6, animal F2",—
same,Tumor measurement W (width),"Day 6, animal F2",—
same,Tumor volume,"Day 6, animal F2",0.0000 cm^3
same,Tumor measurement L (length),"Day 6, animal F3",—
same,Tumor measurement W (width),"Day 6, animal F3",—
same,Tumor volume,"Day 6, animal F3",0.0000 cm^3
same,Tumor measurement L (length),"Day 6, animal F4",—
same,Tumor measurement W (width),"Day 6, animal F4",—
same,Tumor volume,"Day 6, animal F4",0.0000 cm^3
same,Tumor measurement L (length),"Day 6, animal F5",—
same,Tumor measurement W (width),"Day 6, animal F5",—
same,Tumor volume,"Day 6, animal F5",0.0000 cm^3
same,Tumor measurement L (length),"Day 6, animal M1",—
same,Tumor measurement W (width),"Day 6, animal M1",—
same,Tumor volume,"Day 6, animal M1",0.0000 cm^3
same,Tumor measurement L (length),"Day 6, animal M2",—
same,Tumor measurement W (width),"Day 6, animal M2",—
same,Tumor volume,"Day 6, animal M2",0.0000 cm^3
same,Tumor measurement L (length),"Day 6, animal M3",—
same,Tumor measurement W (width),"Day 6, animal M3",—
same,Tumor volume,"Day 6, animal M3",0.0000 cm^3
same,Tumor measurement L (length),"Day 6, animal M4",—
same,Tumor measurement W (width),"Day 6, animal M4",—
same,Tumor volume,"Day 6, animal M4",0.0000 cm^3
same,Tumor measurement L (length),"Day 6, animal M5",—
same,Tumor measurement W (width),"Day 6, animal M5",—
same,Tumor volume,"Day 6, animal M5",0.0000 cm^3
same,Tumor Volume (cm^3) (Mean ± SD),Day 6,0.000 ± 0.0000 cm^3
same,"PI (TV), percent inhibition of tumor volume",Day 6,100.00%
same,Tumor volume,"Day 9, animal F1",0.0000 cm^3
same,Tumor volume,"Day 9, animal F2",0.0000 cm^3
same,Tumor volume,"Day 9, animal F3",0.0000 cm^3
same,Tumor volume,"Day 9, animal F4",0.0000 cm^3
same,Tumor measurement L (length),"Day 9, animal F5",0.10 cm
same,Tumor measurement W (width),"Day 9, animal F5",0.10 cm
same,Tumor volume,"Day 9, animal F5",0.0005 cm^3
same,Tumor volume,"Day 9, animal M1",0.0000 cm^3
same,Tumor volume,"Day 9, animal M2",0.0000 cm^3
same,Tumor volume,"Day 9, animal M3",0.0000 cm^3
same,Tumor volume,"Day 9, animal M4",0.0000 cm^3
same,Tumor measurement L (length),"Day 9, animal M5",0.10 cm
same,Tumor measurement W (width),"Day 9, animal M5",0.10 cm
same,Tumor volume,"Day 9, animal M5",0.0005 cm^3
same,Tumor Volume (cm^3) (Mean ± SD),Day 9,0.000 ± 0.0002 cm^3
same,"mean tumor volume compared with Group 1 (vehicle), statistics","Day 9, p<0.05",statistically significantly smaller than Group 1
same,"PI (TV), percent inhibition of tumor volume",Day 9,99.52%
same,"Tumor measurements on Day 12, L","Day 12, animal F1",0.30 cm
same,"Tumor measurements on Day 12, W","Day 12, animal F1",0.30 cm
same,Tumor volume,"Day 12, animal F2",0.0000 cm^3
same,"Tumor measurements on Day 12, L","Day 12, animal F3",0.30 cm
same,"Tumor measurements on Day 12, W","Day 12, animal F3",0.30 cm
same,"Tumor measurements on Day 12, L","Day 12, animal F4",0.30 cm
same,"Tumor measurements on Day 12, W","Day 12, animal F4",0.30 cm
same,"Tumor measurements on Day 12, L","Day 12, animal F5",0.30 cm
same,"Tumor measurements on Day 12, W","Day 12, animal F5",0.30 cm
same,Tumor volume,"Day 12, animal M1",0.0000 cm^3
same,"Tumor measurements on Day 12, L","Day 12, animal M2",0.30 cm
same,"Tumor measurements on Day 12, W","Day 12, animal M2",0.30 cm
same,Tumor volume,"Day 12, animal M3",0.0000 cm^3
same,Tumor volume,"Day 12, animal M4",0.0000 cm^3
same,"Tumor measurements on Day 12, L","Day 12, animal M5",0.30 cm
same,"Tumor measurements on Day 12, W","Day 12, animal M5",0.30 cm
same,Tumor Volume (cm^3) (Mean ± SD),Day 12,0.008 ± 0.0070 cm^3
same,"PI (TV), percent inhibition of tumor volume",Day 12,97.64%
same,"Tumor measurements on Day 15, L","Day 15, animal F1",0.60 cm
same,"Tumor measurements on Day 15, W","Day 15, animal F1",0.60 cm
same,"Tumor measurements on Day 15, L","Day 15, animal F2",0.40 cm
same,Tumor volumes on Day 15,"Day 15, animal F2",0.0320 cm^3
same,"Tumor measurements on Day 15, W","Day 15, animal F2",0.40 cm
same,"Tumor measurements on Day 15, L","Day 15, animal F3",0.60 cm
same,"Tumor measurements on Day 15, W","Day 15, animal F3",0.60 cm
same,"Tumor measurements on Day 15, L","Day 15, animal F4",0.70 cm
same,Tumor volumes on Day 15,"Day 15, animal F4",0.0875 cm^3
same,"Tumor measurements on Day 15, W","Day 15, animal F4",0.50 cm
same,"Tumor measurements on Day 15, L","Day 15, animal F5",0.50 cm
same,Tumor volumes on Day 15,"Day 15, animal F5",0.0625 cm^3
same,"Tumor measurements on Day 15, W","Day 15, animal F5",0.50 cm
same,"Tumor measurements on Day 15, L","Day 15, animal M1",0.20 cm
same,Tumor volumes on Day 15,"Day 15, animal M1",0.0040 cm^3
same,"Tumor measurements on Day 15, W","Day 15, animal M1",0.20 cm
same,"Tumor measurements on Day 15, L","Day 15, animal M2",0.50 cm
same,Tumor volumes on Day 15,"Day 15, animal M2",0.0625 cm^3
same,"Tumor measurements on Day 15, W","Day 15, animal M2",0.50 cm
same,"Tumor measurements on Day 15, L","Day 15, animal M3",0.20 cm
same,Tumor volumes on Day 15,"Day 15, animal M3",0.0040 cm^3
same,"Tumor measurements on Day 15, W","Day 15, animal M3",0.20 cm
same,"Tumor measurements on Day 15, L","Day 15, animal M4",0.30 cm
same,"Tumor measurements on Day 15, W","Day 15, animal M4",0.30 cm
same,"Tumor measurements on Day 15, L","Day 15, animal M5",0.50 cm
same,Tumor volumes on Day 15,"Day 15, animal M5",0.0625 cm^3
same,"Tumor measurements on Day 15, W","Day 15, animal M5",0.50 cm
same,Tumor Volume (cm^3) (Mean ± SD),Day 15,0.054 ± 0.0399 cm^3
same,"PI (TV), percent inhibition of tumor volume",Day 15,92.56%
same,effect on tumor growth in words,daily dosing Days 3-15,effective towards the tumor inhibition
